Values of other authors in US20180016637A1, “METHOD OF EVALUATING THE RESPONSE OF ATAXIA TELANGIECTASIA PATIENTS TO GLUCOCORTICOIDS TREATMENT” (EryDel S.p.A., priority 2015, published 2018).

Test system: lymphoblastoid cell lines from lymphocytes of A-T patients

In the case of `C[C@@H]1C[C@H]2[C@@H]3CCC4=CC(=O)C=C[C@]4(C)[C@@]3(F)[C@@H](O)C[C@]2(C)[C@@]1(O)C(=O)COP(=O)(O)O` [Dexamethasone sodium phosphate], the “transcript induced in vitro” value is listed as “a transcript of about 1582 bp denominated ATMdexa1”.
